# US6664290B1, “Oral or vaginal administration of mesoprostol in third stage labor” (University College London, priority 1994, dated 2003)
# Read-outs that look alike come from different tables or passages of the source.
# How the values were obtained:
# [1] = system: women in the third stage of labour; format: in vivo
# From the text: The study protocol was reviewed and approved by the local Ethics Committee. Information sheets explaining the aims of the trial were distributed to potential participants either in the antenatal classes, antenatal clinics, and the Day Assessment Area. On admission to labour ward women were reminded about the trial and a written informed consent was obtained if they still wished to participate in the study.
# The main objective of this study was to estimate the incidence of primary postpartum haemorrhage (PPH). This was defined as estimated blood loss of or more than 500 ml. Other measures of blood loss were also considered e.g. severe PPH i.e. >1000 ml; secondary PPH (after 24 hours); need for blood transfusion; use of therapeutic oxytocics (i.e. the need for extra oxytocics); length of third stage; incidence of manual removal of placenta; the need for subsequent evacuation of the retained products of conception; and the change in haemoglobin and packed cell volume in those who had instrumental delivery and/or who had blood loss of 500 ml or more compared to the Haemoglobin done late in pregnancy. Potential adverse effects of the drug used were also recorded e.g. incidence of vomiting, diarrhoea, shivering and hypertension (defined as diastolic blood pressure >100 or Systolic Blood pressure >150). All of these measures were documented by the midwife on call on a specially designed form with demographic information and information related to the type and circumstances of delivery.
# The principle criteria for exclusion were: placenta praevia, multiple pregnancy, intrauterine death, gestational age less than 32 weeks gestation, women with previous PPH and women in their sixth pregnancy or more. In this pilot study, women with hypertension, preeclampsia or pregnancy induced hypertension were also excluded.
# Syntometrine was not given but midwives were instructed to do so if they felt there was a clinical indication. Otherwise the delivery of the placenta was managed according to hospital policy (active management policy). Blood loss was estimated clinically by the attendant midwife or obstetrician. A sample of venous blood was obtained two days later after birth for haemoglobin and packed cell volume assessment from women who had instrumental delivery or from those who had blood loss of 500 ml or more. A record was kept of the last recorded blood pressure and temperature before birth and one hour after delivery.
# Categorical variables are summarised as numbers and percentages, whereas continuous variables that are normally distributed are presented as means and standard deviations (SD), continuous variables that are not normally distributed are presented as medians and interquartile ranges (IQR). Comparisons between the systolic, diastolic blood pressure, haemoglobin, haematocrit and temperature before and after delivery were conducted via the paired t-test. Association between two categorical variables was assessed via Chi-square testing. The significance level was set to the 5% level.
# blood pressure [2] = test: Blood pressure effect of Misoprostol in humans; format: in vivo, human; conditions: administered to humans; dosages up to 800 μg
# [3] = cited from earlier work; for Time of peak plasma levels: oral, substantially the same if administered vaginally
# blood pressure [4] = conditions: animal studies; about 800 μg in a single dose; cited from earlier work
# blood pressure [5] = conditions: patients; about 400 μg; cited from earlier work
# [6] = system: uterus (uterotonic contraction); conditions: intramuscular route, as part of Syntometrine; cited from earlier work
# [7] = after delivery (one hour), 600 μg oral, n = 184
# [8] = after minus before delivery, n = 184
# [9] = before delivery (last recorded, before drug), n = 184
# [10] = one hour after delivery vs last measured before delivery, not statistically significant
smiles,measurement,setting,value
CCCCC(C)(O)C/C=C/[C@H]1[C@H](O)CC(=O)[C@@H]1CCCCCCC(=O)OC (mixture of isomers) [Misoprostol],Number with blood loss >= 500 ml,"[1]; 600 μg Misoprostol orally immediately after delivery, n = 237",13
same,Cases of infection,[1]; 600 μg oral,no cases
same,Incidence of shivering: patients who had epidural anaesthesia vs those who had not,[1]; 600 μg oral,no significant difference
same,Incidence of vomiting relative to that reported when syntometrine is used,[1]; 600 μg oral,almost half
same,% with blood loss > 1000 ml,"[1]; 600 μg oral, n = 237",(0%)
same,% with blood loss greater than 500,"[1]; 600 μg oral, n = 237",3%
same,% with diastolic - 100 (mm Hg),"[1]; 600 μg oral, n = 237",(0%)
same,% with haemoglobin < 9 (g/l),"[1]; 600 μg oral, n = 237",(2%)
same,% with systolic - 150 (mm Hg),"[1]; 600 μg oral, n = 237",(1%)
same,% with third stage length >= 30 minutes,"[1]; 600 μg oral, n = 237",(0.5%)
same,Median (IQR) of blood loss,"[1]; 600 μg oral, n = 237",200 mL
same,Median (IQR) third stage length,"[1]; 600 μg oral, n = 237",5 min
same,Number who had shivering,"[1]; 600 μg oral, n = 237",148
same,Number with blood loss > 1000 ml,"[1]; 600 μg oral, n = 237",0
same,Number with blood loss greater than 500,"[1]; 600 μg oral, n = 237",6
same,Number with diastolic - 100 (mm Hg),"[1]; 600 μg oral, n = 237",0
same,Number with haemoglobin < 9 (g/l),"[1]; 600 μg oral, n = 237",4
same,Number with manual removal of placenta,"[1]; 600 μg oral, n = 237",4
same,Number with repeat syntometrine injection,"[1]; 600 μg oral, n = 237",12
same,Number with systolic - 150 (mm Hg),"[1]; 600 μg oral, n = 237",2
same,Number with third stage length >= 30 minutes,"[1]; 600 μg oral, n = 237",1
same,Patients for whom blood transfusion was required,"[1]; 600 μg oral, n = 237",2 patients
same,Number who had diarrhoea (loose stool),"[1]; 600 μg oral, n = 237, first 24 hours after delivery",7
same,Number who vomited,"[1]; 600 μg oral, n = 237, first hour after delivery",19
same,Duration of shivering,"[1]; 600 μg oral, self-limiting, twenty minutes after swallowing the tablets",10 to 15 min
same,"Temperature, mean","[1]; after delivery (one hour), 600 μg oral, n = 182",37.1 C.
same,"Diastolic blood pressure, mean",[1]; [7],73.0 mm Hg
same,"Systolic blood pressure, mean",[1]; [7],118.4 mm Hg
same,"Haematocrit, mean","[1]; after delivery, 600 μg oral, n = 73",0.33
same,"Haematocrit, mean difference","[1]; after minus before delivery, n = 73",−0.01
same,"Temperature, mean difference (increase)","[1]; after minus before delivery, n = 182",0.5 C.
same,"Diastolic blood pressure, mean difference",[1]; [8],−0.8 mm Hg
same,"Systolic blood pressure, mean difference",[1]; [8],−1.0 mm Hg
same,"Diastolic blood pressure, mean",[1]; [9],73.8 mm Hg
same,"Systolic blood pressure, mean",[1]; [9],119.3 mm Hg
same,"Haematocrit, mean","[1]; before delivery, n = 73",0.34
same,"Temperature, mean","[1]; before delivery, n = 182",36.6 C.
same,Mean reduction of diastolic blood pressure (SE),[1]; [10],0.8 (0.6) mm Hg
same,Mean reduction of systolic blood pressure (SE),[1]; [10],1.0 (SE=0.9) mm Hg
same,Hypertensive effects,"[1]; women who were normotensive before labour, 600 μg oral",could not identify any hypertensive effects
same,Hypertensive effect,blood pressure [2],not hypertensive
same,Unchanged drug in the plasma or urine after use,[3]; extensive metabolism during and/or prior to gastro intestinal absorption,no unchanged drug is detected
same,Time of peak plasma levels,[3],less than fifteen
same,Effect on blood pressure,blood pressure [4],mild hypotensive effect
same,Effect on blood pressure,blood pressure [5],substantially normotensive
CC[C@H](C)[C@@H]1NC(=O)[C@H](Cc2ccc(O)cc2)NC(=O)[C@@H](N)CSSC[C@@H](C(=O)N2CCC[C@H]2C(=O)N[C@@H](CC(C)C)C(=O)NCC(N)=O)NC(=O)[C@H](CC(N)=O)NC(=O)[C@H](CCC(N)=O)NC1=O [syntocinon],Time to action,[6],about 2.5 minutes
CCCCC(C)(O)C/C=C/[C@H]1[C@H](O)CC(=O)[C@@H]1CCCCCCC(=O)O (mixture of isomers) [Misoprostol acid],Time of peak plasma levels,[3],less than fifteen
